These results are taken from paper PMC7139549, “TLD1433 Photosensitizer Inhibits Conjunctival Melanoma Cells in Zebrafish Ectopic and Orthotopic Tumour Models” (Cancers, 2020).

This test concerns CRMM2 cells. The experiment in a line: Annexin-V-FITC / Propidium Iodide FACS, CRMM2. The class given is cell-based, Human. An excerpt: Depending on the nature and intracellular localization of a PS, the light dose, and the cell type, PDT is known to provoke either necrosis, apoptosis, or autophagy. In order to investigate the death mechanism induced by green light-activated TLD1433 in CRMM1 and CRMM2 cells, the cells were stained with Annexin V and propidium iodide, and further analysed by fluorescence-activated cell sorting (FACS).
Figure 3 Green light irradiation of TLD1433 induces apoptosis and necrosis in CRMM1 and CRMM2 cells. (A) CRMM1 and (C) CRMM2 were stained with Annexin-V-FITC and Propidium Iodide. The percentages of live, early apoptotic, later apoptotic and necrotic cells in CRMM1 (B) and CRMM2 (D) were counted by FACS. Results are presented as means ± SD from three independent experiments. […]

For `Cc1ccnc(-c2cc(C)ccn2)c1.Cc1ccnc(-c2cc(C)ccn2)c1.[Cl-].[Cl-].[Ru+2].c1csc(-c2ccc(-c3ccc(-c4nc5c6cccnc6c6ncccc6c5[nH]4)s3)s2)c1` [TLD1433], the “cell fate by FACS (in words)” value (CRMM2, dark TLD1433 group) was “most cells were found alive” and the “cell fate by FACS (in words)” value (CRMM2, light-activated TLD1433 group) is listed as “about half of the cells were found dead”.
